Assays:
NCI-H1838 = assay: Proliferation inhibition, non-small cell lung cancer cell line NCI-H1838; assay type: cell-based; details: Homo sapiens, NCI-H1838, 72 h
Protocol: (§1) Sixteen non-small cell lung cancer cell lines, including NCI-H1792, NCI-H1703, NCI-H441, SNU-761, NCI-H1975, NCI-H358, NCI-H1838, NCI-H1915, A549, SK-MES-1, NCI-H292, PC-9, NCI-H460, NCI-H23, NCI-H1581, and HLF, were used for the proliferation inhibition assay of the present invention compound. […] The cell detection equipment used was In Cell Analyzer 2200 (GE Healthcare).
(§2) With 60 μM as the initial concentration, ten points were obtained by serial five-fold dilution.
(§3) Each kind of cell in logarithmic growth phase was inoculated with 4000 cells/100 μl/well into a black transparent bottom 96-well plate and cultured overnight at 37° C. The next day, the plate was taken out, and 20 μL of the prepared sample dilutions was added to each well. The plate was then subjected to treatment at 37° C. for 72 hours. After the treatment period of 72 hours, the plate was taken out and 50 μL of neutral formaldehyde fixative (formaldehyde: PBS=1:9, 50 μl/well) was added to each well. The plate was then fixed at room temperature for 10-30 minutes. Subsequently, the wells were washed twice with 1× PBS (100 μl/well) and treated with 0.2% Triton™-X100 for 5-10 minutes to permeabilize the cells. […] The inhibitory rates of each compound at different concentration points were calculated by using the following formula, and IC50 values were obtained through curve fitting using GraphPad Prism 6.0 software.

SNU-761 = assay: Proliferation inhibition, non-small cell lung cancer cell line SNU-761; assay type: cell-based; details: Homo sapiens; SNU-761, 72 h
Protocol: as §1, §2, §3

NCI-H460 = assay: Proliferation inhibition, non-small cell lung cancer cell line NCI-H460; assay type: cell-based; details: Homo sapiens, NCI-H460, 72 h
Protocol: as §1, §2, §3

NCI-H1581 = assay: Proliferation inhibition, non-small cell lung cancer cell line NCI-H1581; assay type: cell-based; details: Homo sapiens, NCI-H1581, 72 h
Protocol: as §1, §2, §3

NCI-H1975 = assay: Proliferation inhibition, non-small cell lung cancer cell line NCI-H1975; assay type: cell-based; details: Homo sapiens, NCI-H1975, 72 h
Protocol: as §1, §2, §3

[1] = system: Human glioblastoma model (BN2289); assay: Human glioblastoma xenograft mouse model (BN2289); assay type: in vivo, BALB/C nude mice; details: for Day 21 Tumor Volume / Relative Average Tumor Volume / T/C (relative tumor growth rate) / TGI (relative tumor inhibition rate): day 21
Source text: Human glioblastoma model (BN2289, Crown Bioscience Co., Ltd.) tumor fragments were cut into small pieces with a diameter of 2-3 mm and subcutaneously inoculated into the right side of BALB/C nude mice. Tumor growth was monitored regularly, and when the tumors grew to an average volume of approximately 100-200 mm^3, mice were randomly divided into groups based on the tumor size.
Each group consisted of 8 mice and received oral gavage administration once daily for a total of 28 days. Regular observations were made on tumor volume and changes in body weight. Efficacy evaluation was conducted based on the relative tumor growth rate (T/C) and the relative tumor inhibition rate (TGI).
The formula for calculating tumor volume was: Tumor Volume (mm^3)=½×(a×b^2) (where “a” represents the long diameter and “b” represents the short diameter).
The relative tumor growth rate (T/C) is the percentage value of the relative tumor volume or weight between the treatment group and the control group at a certain time point. The calculation formula is as follows: • T/C(%)=TRTV/CRTV×100% (TRTV: Average RTV of the treatment group; CRTV: Average RTV of the Vehicle group; RTV=Vt/V0, where V0 is the tumor volume of the animal at the time of grouping and Vt is the tumor volume of the animal after treatment).
(T and C are the relative tumor volume (RTV) or weight (TW) of the treatment group and control group at a specific time point, respectively).

U118MG cells = assay: Proliferation inhibition of human glioblastoma cells U118MG (DAPI cell count, 72 h); assay type: cell-based; details: U-118-MG, 72 h treatment
Protocol: Human glioblastoma cell U118MG was purchased from NANJING COBIOER BIOSCIENCES CO., LTD. […] The cell detection equipment used was the In Cell Analyzer 2200 (GE Healthcare).
as §2
Medium for U118 MG is the MEM (low glucose) medium supplemented with 10% FBS, 1% penicillin/streptomycin, 1% sodium pyruvate, and 1% MEM NEAA. U118 MG cells were seeded at a density of 4000 cells/100 μL/well in a 96-well black clear-bottom plate and incubated at 37° C. overnight. The plate was then taken, and 20 μL of the prepared diluted samples was added to the wells. The cells were treated at 37° C. for 72 hours. After 72 hours, the plate was taken, and a neutral formaldehyde fixation solution (formaldehyde:PBS=1:9) was added at 50 μL/well. The cells were fixed at room temperature for 10-30 minutes. The wells were washed twice with 1× PBS (100 μL/well), and then permeabilized with 0.2% Triton™-X100 for 5-10 minutes (100 μL/well). […] The plate was scanned by using an In Cell Analyzer, and the number of cells in each well was analyzed. The inhibition rate of each compound at various concentration points was calculated by using the formula provided. The IC50 values were determined by curve fitting using GraphPad Prism 6.0 software.

NCI-H23 = assay: Proliferation inhibition, non-small cell lung cancer cell line NCI-H23; assay type: cell-based; details: Homo sapiens, NCI-H23, 72 h
Protocol: as §1, §2, §3

HLF = assay: Proliferation inhibition, non-small cell lung cancer cell line HLF; assay type: cell-based; details: Homo sapiens, 72 h
Protocol: as §1, §2, §3

[2] = 10 mg/kg oral gavage once daily
[3] = 25 mg/kg oral gavage once daily
[4] = 50 mg/kg oral gavage once daily

Structure (SMILES): CC1=Nc2c(F)cc(-c3nc(Nc4ccc(C5CCN(C)CC5)cn4)ncc3F)cc2C12CCCC2.O=C(O)/C=C/C(=O)O [Compound A, Fumarate salt of 5-fluoro-4-(7′-fluoro-2′-methylspiro[cyclopentane-1,3′-indol]-5′-yl)-N-(5-(1-methylpiperidin-4-yl)pyridin-2-yl)pyrimidine-2-amine]
- IC50 (NCI-H1838): 47.9 nM
- IC50 (SNU-761): 8 nM
- IC50 (NCI-H460): 235 nM
- IC50 (NCI-H1581): 1120 nM
- IC50 (NCI-H1975): 10 nM
- Day 21 Tumor Volume ([1]; 5 mg/kg oral gavage once daily): 2038.41 ± 177.46 mm^3
- Relative Average Tumor Volume ([1]; 5 mg/kg oral gavage once daily): 13.80
- T/C (relative tumor growth rate) ([1]; 5 mg/kg oral gavage once daily): 95.08%
- TGI (relative tumor inhibition rate) ([1]; 5 mg/kg oral gavage once daily): 4.92%
- Day 21 Tumor Volume [1, 2]: 1900.70 ± 134.20 mm^3
- Relative Average Tumor Volume [1, 2]: 12.81
- T/C (relative tumor growth rate) [1, 2]: 88.24%
- TGI (relative tumor inhibition rate) [1, 2]: 11.76%
- Day 21 Tumor Volume [1, 3]: 1302.81 ± 119.99 mm^3
- Relative Average Tumor Volume [1, 3]: 8.80
- T/C (relative tumor growth rate) [1, 3]: 60.61%
- TGI (relative tumor inhibition rate) [1, 3]: 39.39%
- Day 21 Tumor Volume [1, 4]: 938.13 ± 52.26 mm^3
- Relative Average Tumor Volume [1, 4]: 6.32
- T/C (relative tumor growth rate) [1, 4]: 43.56%
- TGI (relative tumor inhibition rate) [1, 4]: 56.44%
- Drug toxicity / tolerance (body weight) ([1]; 5-50 mg/kg oral gavage once daily, 28 days): no significant toxic side effects
- IC50 (U118MG cells): 23.2 ± 5.2 nM
- IC50 (NCI-H23): 243 nM
- IC50 (HLF): 2010 nM

— patent US20250332167A1, “PHARMACEUTICAL USE OF CDK 4/6 INHIBITOR” (priority 2021, published 2025)
